Source: patent publication US20240082212A1, “USE OF MDMA FOR TREATMENT OF STRESS-RELATED DISORDERS” (priority 2022, published 2024)

Molecular target: T1, Adrenergic α2B (Homo sapiens, UniProt P18089)
T1 sequence (P18089 1-450): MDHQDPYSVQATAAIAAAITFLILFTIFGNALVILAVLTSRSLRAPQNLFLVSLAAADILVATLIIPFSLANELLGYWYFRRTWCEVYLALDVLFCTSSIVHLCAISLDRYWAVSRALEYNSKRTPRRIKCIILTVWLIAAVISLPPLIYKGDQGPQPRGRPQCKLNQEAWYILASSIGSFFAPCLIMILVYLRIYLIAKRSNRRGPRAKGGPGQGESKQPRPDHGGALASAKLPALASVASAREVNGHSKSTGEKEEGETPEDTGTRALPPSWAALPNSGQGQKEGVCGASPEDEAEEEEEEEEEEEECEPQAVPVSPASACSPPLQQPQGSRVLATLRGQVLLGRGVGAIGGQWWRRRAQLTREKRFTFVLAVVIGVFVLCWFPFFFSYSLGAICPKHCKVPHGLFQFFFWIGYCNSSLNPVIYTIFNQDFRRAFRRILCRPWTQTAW
Assay: Eurofins Panlabs radioligand binding panel, adrenergic α2B
Conditions: 10 uM

SMILES: C[C@H](N)Cc1ccc2c(c1)OCO2 [S-MDA, S(+)-MDA]
- % inhibition of binding or activity: 51%
